For 23 compounds, IC50 results are on record in patent publication US12202818B2, “Compounds and methods for CD73 modulation and indications therefor” (Opna Bio SA, priority 2020, dated 2025).

The target in assay [1] is T1, human CD73 (Homo sapiens, UniProt P21589).
T1 construct: expressed in transfected cells
T1 sequence (P21589 27-549): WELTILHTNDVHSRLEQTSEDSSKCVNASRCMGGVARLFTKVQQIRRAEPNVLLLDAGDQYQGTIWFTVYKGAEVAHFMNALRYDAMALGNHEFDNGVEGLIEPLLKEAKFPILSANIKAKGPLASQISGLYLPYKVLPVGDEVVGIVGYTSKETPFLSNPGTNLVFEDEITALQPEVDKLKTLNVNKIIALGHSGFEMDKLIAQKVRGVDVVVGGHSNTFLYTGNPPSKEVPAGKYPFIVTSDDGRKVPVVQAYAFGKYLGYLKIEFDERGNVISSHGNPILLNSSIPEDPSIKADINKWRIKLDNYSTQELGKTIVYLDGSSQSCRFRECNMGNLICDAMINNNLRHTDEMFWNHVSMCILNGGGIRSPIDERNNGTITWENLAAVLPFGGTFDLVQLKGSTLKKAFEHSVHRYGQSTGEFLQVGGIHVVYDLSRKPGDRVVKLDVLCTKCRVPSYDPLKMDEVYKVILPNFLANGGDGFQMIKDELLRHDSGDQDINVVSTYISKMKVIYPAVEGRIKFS
In words: Inhibitor activity against CD73 in cell based assay (CD73 expressing CHO-K1 cells). Particulars: CHO-K1 cells expressing human CD73, 150 μM AMP, 4 hours of incubation; read-out: CHO-K1 CELL_VARIANT: CD73 IC50. The gist of the method:
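AMP (150 μM) was added alongside 8 titrated compound doses (maximum 10 μM, 1:3 steps) to CHO-K1 cells stably expressing human CD73. After 4 h, supernatant AMP was measured indirectly with CellTiter-Glo 2.0 plus 1 μM ATP (30 min, RT). % inhibition versus high and low controls was fitted nonlinearly for IC50.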

The target in assay [2] is T2, Human CD73 (amino acid residues 27-549) (Homo sapiens, UniProt P21589).
T2 construct: Human CD73 (amino acid residues 27-549); His tag (N); made in house; host or cells: E. coli
T2 sequence (P21589 27-549): T1 sequence (P21589 27-549)
Description: CD73 enzymatic assay (luciferase-based indirect assay, CellTiter-Glo). The assay is classed as biochemical. The settings on record: 0.4 nM CD73, 150 μM AMP, 1 hour at room temperature. Put shortly: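 Luciferase-coupled readout: AMP left after CD73 turnover suppresses CellTiter-Glo signal (1 μM ATP final, 30 min RT). Reaction beforehand: 150 μM AMP, 0.4 nM E. coli-made His-tagged CD73 residues 27-549, test compound, HEPES pH 7.4 with Tween-20, 1 h RT. % inhibition fitted nonlinearly for IC50.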
Background: ATP-based viability assays read luminescence as a measure of living cells.

The IC50 is the midpoint of a concentration-inhibition curve.

`O=C(CO)N1CCC(c2ccnc(O[C@@H]3CCN(c4cn[nH]c(=O)c4Cl)C3)c2)CC1` [P-0016, (R)-4-chloro-5-(3-((4-(1-(2-hydroxyacetyl)piperidin-4-yl)pyridin-2-yl)oxy)pyrrolidin-1-yl)pyridazin-3(2H)-one]: the IC50 in assay [1] and in assay [2] was 0.001 to 10 µM in each case.
For `N#CC1CC=C(c2ccnc(O[C@@H]3CCN(c4cn[nH]c(=O)c4Cl)C3)c2)CC1` (stereo partly drawn) [P-0100, 4-(2-(((R)-1-(5-chloro-6-oxo-1,6-dihydropyridazin-4-yl)pyrrolidin-3-yl)oxy)pyridin-4-yl)cyclohex-3-ene-1-carbonitrile], the IC50 in assay [1] and in assay [2] was 0.001 to 10 µM throughout.
With `CC(=O)C1CCC(c2ccnc(O[C@@H]3CCN(c4cn[nH]c(=O)c4Cl)C3)c2)CC1` (stereo partly drawn) [P-0060, (R)-5-(3-((4-(4-acetylcyclohexyl)pyridin-2-yl)oxy)pyrrolidin-1-yl)-4-chloropyridazin-3(2H)-one], the IC50 in assay [1] and in assay [2] was 0.001 to 10 µM throughout.
For the compound `Cc1nn(C)c(C)c1-c1cc(O[C@@H]2CCN(c3cn[nH]c(=O)c3Cl)C2)nc(N)n1` [P-0089, (R)-5-(3-((2-amino-6-(1,3,5-trimethyl-1H-pyrazol-4-yl)pyrimidin-4-yl)oxy)pyrrolidin-1-yl)-4-chloropyridazin-3(2H)-one], the IC50 in assay [1] and in assay [2] was 0.001 to 10 µM throughout.
In the case of `O=c1[nH]ncc(N2CC[C@@H](Oc3cc(-n4cccc4)ccn3)C2)c1Cl` [P-0252, (R)-5-(3-((4-(1H-pyrrol-1-yl)pyridin-2-yl)oxy)pyrrolidin-1-yl)-4-chloropyridazin-3(2H)-one], the IC50 in assay [1] and in assay [2] was 0.001 to 10 µM throughout.
Regarding `Cc1nn(C)c(C)c1-c1ccnc(O[C@H]2CN(c3cnn(CCO)c(=O)c3Cl)C[C@@H]2F)c1` [P-0142, 4-chloro-5-((3S,4S)-3-fluoro-4-((4-(1,3,5-trimethyl-1H-pyrazol-4-yl)pyridin-2-yl)oxy)pyrrolidin-1-yl)-2-(2-hydroxyethyl)pyridazin-3(2H)-one], the IC50 in assay [1] and in assay [2] was 0.001 to 10 µM each time.
Take `O=c1[nH]ncc(N2CC[C@@H](Oc3cc(C4CCCC4)ccn3)C2)c1Cl` [P-0073, (R)-4-chloro-5-(3-((4-cyclopentylpyridin-2-yl)oxy)pyrrolidin-1-yl)pyridazin-3(2H)-one]: the 50% inhibitory concentration (IC50) in assay [1] and in assay [2] was 0.001 to 10 µM in each case.
On to `Cc1nn(C)c(C)c1-c1ccnc(O[C@@H]2CCN(c3cnn(CCO)c(=O)c3Cl)C2)c1` [P-0143, (R)-4-chloro-2-(2-hydroxyethyl)-5-(3-((4-(1,3,5-trimethyl-1H-pyrazol-4-yl)pyridin-2-yl)oxy)pyrrolidin-1-yl)pyridazin-3(2H)-one], for which the IC50 in assay [1] and in assay [2] was 0.001 to 10 µM in each case.
As for `Cc1noc(C)c1-c1cc(F)nc(O[C@@H]2CCN(c3cnn(CCO)c(=O)c3Cl)C2)c1` [P-0123, (R)-4-chloro-5-(3-((4-(3,5-dimethylisoxazol-4-yl)-6-fluoropyridin-2-yl)oxy)pyrrolidin-1-yl)-2-(2-hydroxyethyl)pyridazin-3(2H)-one], the IC50 in assay [1] and in assay [2] was 0.001 to 10 µM in each case.
As for `O=c1[nH]ncc(N2CC[C@@H](Oc3cc(N4[C@@H]5CC[C@H]4CC(F)(F)C5)ccn3)C2)c1Cl` [P-0111, 4-chloro-5-((R)-3-((4-((1R,5S)-3,3-difluoro-8-azabicyclo[3.2.1]octan-8-yl)pyridin-2-yl)oxy)pyrrolidin-1-yl)pyridazin-3(2H)-one], the IC50 was in the range of 10 to 100 µM in assay [1] and 0.001 to 10 µM in assay [2].
With `O=c1[nH]ncc(N2CC[C@@H](Oc3cc(C4CCN(CC(O)C(F)(F)F)CC4)ccn3)C2)c1Cl` (stereo partly drawn) [P-0011, 4-chloro-5-((3R)-3-((4-(1-(3,3,3-trifluoro-2-hydroxypropyl)piperidin-4-yl)pyridin-2-yl)oxy)pyrrolidin-1-yl)pyridazin-3(2H)-one], the IC50 in assay [1] and in assay [2] was 0.001 to 10 µM each time.
As for `Cc1nn(CC(F)F)c(C)c1-c1cc(F)nc(O[C@@H]2CCN(c3cn[nH]c(=O)c3Cl)C2)c1` [P-0169, (R)-4-chloro-5-(3-((4-(1-(2,2-difluoroethyl)-3,5-dimethyl-1H-pyrazol-4-yl)-6-fluoropyridin-2-yl)oxy)pyrrolidin-1-yl)pyridazin-3(2H)-one], the concentration for half-maximal inhibition (IC50) in assay [1] and in assay [2] was 0.001 to 10 µM throughout.
On to `Cc1nn(CC(C)(C)O)c(C)c1-c1ccnc(O[C@@H]2CCN(c3cnn(CCO)c(=O)c3Cl)C2)c1` [P-0017, (R)-4-chloro-5-(3-((4-(1-(2-hydroxy-2-methylpropyl)-3,5-dimethyl-1H-pyrazol-4-yl)pyridin-2-yl)oxy)pyrrolidin-1-yl)-2-(2-hydroxyethyl)pyridazin-3(2H)-one], for which the IC50 in assay [1] and in assay [2] was 0.001 to 10 µM each time.
Take `Cc1nn(CC2CC(C#N)C2)c(C)c1-c1cc(O[C@@H]2CCN(c3cn[nH]c(=O)c3Cl)C2)ncn1` (stereo partly drawn) [P-0052, (R)-3-((4-(6-((1-(5-chloro-6-oxo-1,6-dihydropyridazin-4-yl)pyrrolidin-3-yl)oxy)pyrimidin-4-yl)-3,5-dimethyl-1H-pyrazol-1-yl)methyl)cyclobutane-1-carbonitrile]: the values for the IC50 in assay [1] and in assay [2] were 10 to 100 µM and 0.001 to 10 µM, respectively.
In the same order, the values of `Cc1noc(C)c1-c1cc(O[C@H]2CN(c3cn[nH]c(=O)c3Cl)C[C@@H]2F)ncc1F` [P-0134, 4-chloro-5-((3S,4S)-3-((4-(3,5-dimethylisoxazol-4-yl)-5-fluoropyridin-2-yl)oxy)-4-fluoropyrrolidin-1-yl)pyridazin-3(2H)-one] are 0.001 to 10 µM and 0.001 to 10 µM.
In the case of `Cc1nn(CCO)c(C)c1-c1cc(F)nc(O[C@@H]2CCN(c3cn[nH]c(=O)c3Cl)C2)c1` [P-0192, (R)-4-chloro-5-(3-((6-fluoro-4-(1-(2-hydroxyethyl)-3,5-dimethyl-1H-pyrazol-4-yl)pyridin-2-yl)oxy)pyrrolidin-1-yl)pyridazin-3(2H)-one], the IC50 in assay [1] and in assay [2] was 0.001 to 10 µM each time.
With `O=c1[nH]ncc(N2CC[C@@H](Oc3cc(C4=CCNCC4)ccn3)C2)c1Cl` [P-0075, (R)-4-chloro-5-(3-((1′,2′,3′,6′-tetrahydro-[4,4′-bipyridin]-2-yl)oxy)pyrrolidin-1-yl)pyridazin-3(2H)-one], the IC50 in assay [1] and in assay [2] was 0.001 to 10 µM in each case.
For the compound `CC(C)C(=O)Nc1ccc(-c2ccnc(O[C@@H]3CCN(c4cn[nH]c(=O)c4Cl)C3)c2)c(F)c1` [P-0205, (R)-N-(4-(2-((1-(5-chloro-6-oxo-1,6-dihydropyridazin-4-yl)pyrrolidin-3-yl)oxy)pyridin-4-yl)-3-fluorophenyl)isobutyramide], the IC50 in assay [1] and in assay [2] was 0.001 to 10 µM in each case.
Consider `CS(=O)(=O)N1CC=C(c2ccnc(O[C@@H]3CCN(c4cn[nH]c(=O)c4Cl)C3)c2)CC1` [P-0029, (R)-4-chloro-5-(3-((1′-(methylsulfonyl)-1′,2′,3′,6′-tetrahydro-[4,4′-bipyridin]-2-yl)oxy)pyrrolidin-1-yl)pyridazin-3(2H)-one], for which the IC50 in assay [1] lay within 10 to 100 µM; in assay [2], 0.001 to 10 µM.
On to `O=c1[nH]ncc(N2CC[C@@H](Oc3cc(-c4ccc(C(F)(F)F)cc4Cl)ccn3)C2)c1Cl` [P-0232, (R)-4-chloro-5-(3-((4-(2-chloro-4-(trifluoromethyl)phenyl)pyridin-2-yl)oxy)pyrrolidin-1-yl)pyridazin-3(2H)-one], for which the IC50 in assay [1] and in assay [2] was 0.001 to 10 µM throughout.
Consider `CC1CCCCN1c1ccnc(O[C@@H]2CCN(c3cn[nH]c(=O)c3Cl)C2)c1` (stereo partly drawn) [P-0094, 4-chloro-5-((3R)-3-((4-(2-methylpiperidin-1-yl)pyridin-2-yl)oxy)pyrrolidin-1-yl)pyridazin-3(2H)-one], for which the IC50 in assay [1] and in assay [2] was 0.001 to 10 µM each time.
With `CCCNS(=O)(=O)N1CCN(c2ccnc(O[C@@H]3CCN(c4cn[nH]c(=O)c4Cl)C3)c2)CC1` [P-0226, (R)-4-(2-((1-(5-chloro-6-oxo-1,6-dihydropyridazin-4-yl)pyrrolidin-3-yl)oxy)pyridin-4-yl)-N-propylpiperazine-1-sulfonamide], the IC50 in assay [1] and in assay [2] was 0.001 to 10 µM throughout.
As to `Cc1cc(S(=O)(=O)NC2CC2)ccc1-c1cc(F)nc(O[C@@H]2CCN(c3cn[nH]c(=O)c3Cl)C2)c1` [P-0217, (R)-4-(2-((1-(5-chloro-6-oxo-1,6-dihydropyridazin-4-yl)pyrrolidin-3-yl)oxy)-6-fluoropyridin-4-yl)-N-cyclopropyl-3-methylbenzenesulfonamide], the 50% inhibitory concentration (IC50) in assay [1] and in assay [2] was 0.001 to 10 µM each time.
